Test results taken from patent US20260306460A1, “COMPOSITION FOR REMOVING AND INHIBITING SENESCENT CELLS, AND USES THEREOF” (LIFECEUTIX CO., LTD., priority 2023, published 2026).

What was measured:
[1] = system: doxorubicin-induced aged C57BL6J mice; assay: Bone marrow function (CAFC assay) in doxorubicin-aged mice, Example 22-12, Table 41; format: in vivo, mouse; conditions: bone marrow of doxorubicin-induced aged mice, 5 weeks of culture; untreated 1.8 (±0.1)
Description: Eight-week-old male C57BL6J mice (KRIBB Laboratory Animal Resource Center) were acclimated to the experimental environment for one week. Afterwards, the anticancer agent doxorubicin was administered intraperitoneally at a concentration of 10 mg/kg, inducing aging for more than 10 days. The aging-induced mice were randomly assigned to experimental and control groups. LX-403 was mixed with a 10% ethanol solution of PEG400 and administered orally at a concentration of 25 mg/kg or intradermally at a concentration of 1 μM for 21 days. LX-1801 was mixed in distilled water with 4% DMSO, 30% PEG300, and 5% Tween80 and administered intradermally at a concentration of 0.4 μM daily for 21 days. LX-2001 was mixed in PBS and administered intradermally at a concentration of 2 μM daily for 21 days. LX-2002 was mixed in distilled water with 4% DMSO, 30% PEG300, and 5% Tween80 and administered intradermally at a concentration of 2 μM daily for 21 days. […] LX-2005 was mixed in distilled water with 4% DMSO, 30% PEG300, and 5% Tween80 and administered intradermally at a concentration of 90 μM daily for 21 days. LX-2007 was mixed in distilled water with 4% DMSO, 30% PEG300, and 5% Tween80 and administered intradermally at a concentration of 90 μM daily for 21 days. […] LX-3002 was mixed in distilled water with 4% DMSO, 30% PEG300, and 5% Tween80 and administered orally at a concentration of 10 mg/kg daily for 21 days. […] LX-5411 was mixed in 5% phosphate-buffered saline (PBS) and administered orally at a concentration of 10 mg/kg daily for 21 days or intradermally at a concentration of 3 μM. LX-5701 was mixed in PBS and administered orally at a concentration of 360 mg/kg daily for 21 days. LX-6807 was mixed in saline and administered intraperitoneally at a concentration of 1 mg/kg daily for 21 days. The control group received only the solution in the same volume. After the end of drug administration, the methods described in each example below were performed.
Damage to the immune system, including the bone marrow, after chemotherapy is known to induce inflammatory responses and contribute to drug resistance and adverse effects. To analyze the function of bone marrow hematopoietic cells in mice induced to age by the anticancer agent, a cobblestone-area-forming-cell (CAFC) assay was performed. Specifically, bone marrow cells (BMCs) were collected from the femurs and tibias of mice, and BM-MNCs (mono-nuclear cells) were cultured in MethoCult™ GF M3434 methylcellulose medium (Stem Cell™ Technologies Inc, Canada). FBMD-1 stromal cells were seeded in each well of a 96-well plate to prepare a support cell stromal layer. […] After 5 weeks of culture, CAFCs were counted using an optical microscope.

[2] = system: cigarette smoke-induced COPD C57BL6J mice; assay: Cigarette smoke COPD in mice (p16, IL6 mRNA, alveoli size), Example 25, Table 49; format: in vivo, mouse; conditions: for Airspace enlargement: average size of alveoli, untreated 38.7 (±0.6); for IL6 mRNA / p16 mRNA: lung, daily for 21 days, untreated 100%
Description: Eight-week-old male C57BL6J mice (KRIBB Laboratory Animal Resource Center) were acclimated to the experimental environment for one week. After exposure to standard cigarette smoke (costa monitoring cigarette 7) for 5 hours per day, 5 days per week for 6 months, chronic obstructive pulmonary disease (COPD) was induced. Mice with induced COPD were randomly assigned to experimental and control groups. […] LX-3002 was mixed in distilled water with 4% DMSO, 30% PEG300, 5% tween80 and administered orally at a concentration of 10 mg/kg daily for 21 days. LX-5701 was mixed in PBS and administered orally at a concentration of 360 mg/kg daily for 21 days. LX-6807 was mixed in saline and administered intraperitoneally at a concentration of 1 mg/kg daily for 21 days. The control group received only the solution in the same volume. After the end of drug administration, mice were sacrificed in the same manner as in Example 7-2 of WO2023-085787 A1, RNA was extracted from lung tissue, and qRT-PCR (quantitative real-time PCR) was performed and analyzed using the synthesized cDNA. […] The amount of mRNA after aging was calculated as 100%, and the results after treatment with the test compound were compared. Furthermore, paraffin sections were stained with hematoxylin/eosin (H/E), and the size of alveoli was measured under a light microscope to assess the degree of lung function impairment.

senescent A549 cells = assay: Viability of senescent A549 cells (CellTiter-Glo), Example 18, Table 15; conditions: Homo sapiens, A549, read-out: Survival (%)
Description: Senescence-induced cancer cells treated with doxorubicin were treated with the test compound at designated concentrations, and cell viability was measured using the CellTiter-Glo Luminescent Cell Viability Assay (Promega).

Compound | CAFCs/10^5 BMCs [1] | Airspace enlargement [2] | IL6 mRNA [2] | p16 mRNA [2] | viability at 1.1 µM (senescent A549 cells) | viability at 10 µM (senescent A549 cells) | viability at 30 µM (senescent A549 cells)
Cc1cccc([C@H](C)c2cnc[nH]2)c1C [LX-6807, Dexmedetomidine] | 3.5 (±0.2) CAFCs/10^5 BMCs | 30.4 (±1.5) μm | 48 (±5.6) % | 68 (±2.4) % | 94.1% | 76.5% | 6.6%
Tocofersolan [LX-3001] | 2.1 (±0.2) CAFCs/10^5 BMCs | 37.1 (±2.7) μm | 79 (±9.9) % | 83 (±5.0) % | – | – | –
CCCC\C=C/C=C/C=C\CCCCCCCC(=O)O [LX-2707, Punicic acid] | 2.7 (±0.2) CAFCs/10^5 BMCs | 36.4 (±1.9) μm | 76 (±6.7) % | 78 (±5.5) % | – | – | –
C#CC(=O)N1[C@@H](CCCC)Cc2cc(OC)ccc2[C@@H]1c1ccc(NC23CC4CC(CC(C4)C2)C3)cc1 [LX-5411] | – | – | – | – | 75.4% | 5.3% | –
COC(=O)[C@H]1Cc2c([nH]c3ccccc23)[C@H](c2ccc(S(C)(=O)=O)cc2)N1C(=O)CCl [LX-5401, methyl (1S,3R)-2-(2-chloroacetyl)-1-(4-(methylsulfonyl)phenyl)-2,3,4,9-tetrahydro-1H-pyrido[3,4-b]indole-3-carboxylate] | – | – | – | – | 92.7% | 43.8% | 1.9%
O=C1C2CCN(CC2)C1CNC(=O)C(F)(F)F (stereo not drawn) [LX-5701] | 3.3 (±0.2) CAFCs/10^5 BMCs | 31.9 (±2.4) μm | 59 (±16.8) % | 70 (±7.8) % | 82.3% | 43.8% | 16.2%
